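Five compound concentrations were applied to cells in 96-well plates for 48 hours; endpoints were derived by simple linear interpolation of the resulting dose-response curve. Here, GI50 denotes the concentration required for 50% inhibition of growth. The concentration for full growth arrest is given as TGI.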
Experiments:
Test in all cases: NCI anticancer screen, dose series, 48 h
[1] = system: MOLT-4 leukemia
[2] = system: K-562 leukemia
[3] = system: ACHN renal
[4] = system: SK-MEL-28 melanoma
[5] = system: TK-10 renal
[6] = system: HCT-15 colon
[7] = system: A549 NSCLC
[8] = system: MCF7 breast
[9] = system: IGROV1 ovarian
[10] = system: NCI-H460 lung
[11] = system: OVCAR-8 ovarian
[12] = system: SF-295 CNS
[13] = system: SR leukemia
[14] = system: UACC-62 melanoma
[15] = system: HL-60(TB) leukemia
[16] = system: SK-MEL-5 melanoma
[17] = system: SW-620 colon
[18] = system: EKVX NSCLC
[19] = system: SF-268 CNS
[20] = system: CAKI-1 renal
[21] = system: HCC-2998 colon
[22] = system: BT-549 breast
[23] = system: 786-0 renal
[24] = system: COLO 205 colon
[25] = system: LOX IMVI melanoma
[26] = system: KM12 colon
[27] = system: NCI-H226 lung
[28] = system: MDA-MB-435
[29] = system: DU-145 prostate

## O=c1[nH]c2c(ccc3cnccc32)c2c1CCC2
[1]
  GI50: 386 nM
  TGI: > 100000 nM
[2]
  GI50: 657 nM
  TGI: > 100000 nM
[3]
  GI50: 279 nM
  TGI: > 100000 nM
[4]
  GI50: 306 nM
  TGI: 840 nM
[5]
  GI50: 331 nM
[6]
  GI50: 357 nM
  TGI: > 100000 nM
[7]
  GI50: 500 nM
  TGI: > 53500 nM
[8]
  GI50: 317 nM
[9]
  GI50: 258 nM
  TGI: 923 nM
[10]
  GI50: 376 nM
  TGI: > 28900 nM
[11]
  GI50: 331 nM
  TGI: > 100000 nM
[12]
  GI50: 362 nM
  TGI: > 100000 nM
[13]
  TGI: > 100000 nM
[14]
  GI50: 214 nM
  TGI: 622 nM
[15]
  GI50: 272 nM
[16]
  GI50: 196 nM
  TGI: 517 nM
[17]
  GI50: 308 nM
  TGI: 1840 nM
[18]
  GI50: 1470 nM
  TGI: > 100000 nM
[19]
  GI50: 333 nM
  TGI: 37300 nM
[20]
  GI50: 308 nM
  TGI: > 100000 nM
[21]
  GI50: 356 nM
  TGI: 1910 nM
[22]
  GI50: 172 nM
  TGI: 532 nM
[23]
  GI50: 344 nM
  TGI: 29900 nM
[24]
  GI50: 241 nM
  TGI: 677 nM
[25]
  GI50: 282 nM
  TGI: > 33200 nM
[26]
  GI50: 332 nM
  TGI: > 35700 nM
[27]
  GI50: 252 nM
  TGI: 897 nM
[28]
  GI50: 307 nM
  TGI: 1380 nM
[29]
  GI50: 376 nM
